Read-outs that look alike come from different tables or passages of the source.
Legend:
PRDX1 [1] = target: T1, PRDX1 (Homo sapiens, UniProt Q06830); assay: PRDX1 inhibition assay; assay type: biochemical
T1 sequence (Q06830 1-199): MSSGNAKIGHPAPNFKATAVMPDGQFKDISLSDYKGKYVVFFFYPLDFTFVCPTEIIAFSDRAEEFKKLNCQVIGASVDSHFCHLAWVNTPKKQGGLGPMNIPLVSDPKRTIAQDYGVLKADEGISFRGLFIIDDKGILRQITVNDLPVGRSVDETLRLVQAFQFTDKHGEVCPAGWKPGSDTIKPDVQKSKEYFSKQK
Experimental: The cells were purchased from the American Type Culture Collection (ATCC) (Manassas, VA, United States). Cells were cultured in RPMI-1640 medium supplemented with 10% FBS, 50 units/mL penicillin, and 50 μg/mL streptomycin, and maintained at 37°C in a 5% CO2 humidified culture environment. CPs 1-5 were purchased from WuXi AppTec. Human PRDX1 proteins were purchased from Abcam (Cambridge, MA, United States).
First, […] buffer (20 mM HEPES, 5 mM EDTA, 5 μM cofactor A, 2 μM cofactor B, and 300 μM NADPH) was added to a 96-well plate. The test compounds at the designated concentration (0.02–2 nM, with 1.5-fold dilution) were incubated with PRDX1 at 37°C for 25 min, and then the co-incubated mixture was added to each well to a final concentration of 200 nM PRDX1. Finally, 200 μM H2O2 was added to each well to initiate the enzyme reaction cycle. The oxidation of NADPH was determined by the absorption value at 340 nm. Read plate values for 90 s for one cycle and repeat for 20 cycles. The positive control (celastrol, concentrations 0.06–64 μM) was tested in parallel under identical experimental conditions. Three independent replicate experiments were performed.

[2] = test system: BEAS-2B normal lung cells; assay: MTT assay; assay type: cell-based; conditions: Homo sapiens, 72 h
Experimental: (§1) Cells were seeded in 96-well plates at 5 ×10^4 cells/well and cultured overnight at 37°C under 5% CO2. After medium removal, cells were treated with serially diluted compounds (0.04–163.84 μM) or vehicle control (0.1% DMSO) and incubated for 72 h. Subsequently, 20 μL of MTT solution (5 mg/mL) was added to each well, and incubation was continued for 4 h. Add 150 μL of DMSO and shake for 10 min to fully dissolve the crystal. Finally, the absorbance was measured at 570 nm using a microplate reader. Cell viability was calculated as (ODcompound - ODblank)/(ODvehicle - ODblank) × 100%. The half inhibitory concentration (IC50) was calculated from the dose-response curve using Prism 8.0 software. Three independent replicate experiments were performed.

A549 lung cancer cells = assay: MTT assay; assay type: cell-based; conditions: Homo sapiens, read-out: IC50 (μM) A549
Experimental: as §1

PRDX1 [3] = target: T1, PRDX1; assay: MST assay; assay type: binding
Experimental: The MST assays were carried out in a buffer composed of 50 mM Tris, 200 mM NaCl, and 0.1% (v/v) TWEEN20. PRDX1 was tagged with the MO-L011 protein labeling kit (RED-NHS second Generation). The diluted compounds were combined with the tagged PRDX1 protein and allowed to stand at room temperature for 5 minutes. Subsequently, the reaction mixture was loaded into capillaries, and measurements were taken using a Monolith NT.115 instrument.

[4] = test system: HaCaT (immortalised keratinocytes); assay: MTT assay; assay type: cell-based; conditions: Homo sapiens, 72 h, normal cells, mean ± SD, n = 3
Experimental: as §1

[5] = test system: MCF-7 (breast adenocarcinoma cells); assay: MTT assay; assay type: cell-based; conditions: Homo sapiens, MCF7, 72 h, read-out: IC50 (μM) MCF-7
Experimental: as §1

[6] = test system: HepG2 (hepatocellular carcinoma cells); assay: MTT assay; assay type: cell-based; conditions: Homo sapiens, HepG2, 72 h, read-out: IC50 (μM) HepG2
Experimental: as §1

LO2 (normal liver cells) = assay: MTT assay; assay type: cell-based; conditions: Homo sapiens, 72 h, read-out: IC50 (μM) LO2
Experimental: as §1

[7] = test system: HEK293 (embryonic kidney cells); assay: MTT assay; assay type: cell-based; conditions: Homo sapiens, HEK293, 72 h, read-out: IC50 (μM) HEK293
Experimental: as §1

[8] = mean ± SD, n = 3, read-out: PRDX1 (IC50)
[9] = MTT, normal lung cells, mean ± SD, n = 3, read-out: IC50 (μM) BEAS-2B
[10] = A549, MTT, 72 h, mean ± SD, n = 3

IC50 (PRDX1 [1]; [8]) [µM]	IC50 (A549 lung cancer cells; [10]) [µM]	SMILES	IC50 [2, 9] [µM]	IC50 (PRDX1 [1]) [µM]	Kd (PRDX1 [3]) [µM]	IC50 [4] [µM]	IC50 [5] [µM]	IC50 ([2]; read-out: IC50 (μM) BEAS-2B) [µM]	IC50 [6] [µM]	IC50 (A549 lung cancer cells; A549, 72 h) [µM]	IC50 (LO2 (normal liver cells)) [µM]	IC50 [7] [µM]
0.00017 ± 2e-05	0.46 ± 0.03	CC1=C(CC(=O)/C=C/C2=CC(CO)=CC2)C(=O)C=C2C1=CC=C1[C@@]2(C)CC[C@@]2(C)C3C[C@](C)(C(=O)NCc4cccc(C(O)C(O)O)c4)CC[C@]3(C)CC[C@]12C (stereo partly drawn) [CP2]	> 100									
0.00025 ± 1e-05	0.57 ± 0.05	Cc1ncc(CNC(=O)[C@]2(C)CC[C@]3(C)CC[C@]4(C)C5=CC=C6C=C(CC(=O)/C=C/c7cccc(CO)c7)C(=O)C=C6C5CC[C@@]4(C)C3C2)nc1C(C)C(O)O (stereo partly drawn) [CP3]	> 100									
0.00031 ± 3e-05	0.63 ± 0.04	C[C@@]1(C(=O)NCc2cccc(CC(O)O)c2)CC[C@]2(C)CC[C@]3(C)C4=CC=C5C=C(CC(=O)/C=C/c6cccc(CO)c6)C(=O)C=C5C4CC[C@@]3(C)C2C1 (stereo partly drawn) [CP4]	> 100									
0.00036 ± 2e-05	0.68 ± 0.06	C=C(/C=C(C)\C=C\C(=O)CC1=CC2=CC=C3C(CC[C@@]4(C)C5C[C@](C)(C(=O)NCc6cccc(CC(O)O)c6)CC[C@]5(C)CC[C@]34C)C2=CC1=O)CO (stereo partly drawn) [CP5]	> 100									
		CC1=C(O)C(=O)C=C2C1=CC=C1[C@@]2(C)CC[C@@]2(C)[C@@H]3C[C@](C)(C(=O)O)CC[C@]3(C)CC[C@]12C [Celastrol, celastrol]		0.51 ± 0.04	0.32 ± 0.02	17.4 ± 0.54	1.31 ± 0.06	0.45 ± 0.03	1.28 ± 0.05	1.24 ± 0.08	24 ± 0.69	5.76 ± 0.12
